Values quoted from earlier work in patent US7452901B2, “Anti-cancer phosphonate analogs” (Gilead Sciences, Inc., priority 2003, dated 2008).

Molecular target: T1, purine nucleotide phosphorylase (Homo sapiens, UniProt P00491)
T1 sequence (P00491 1-289): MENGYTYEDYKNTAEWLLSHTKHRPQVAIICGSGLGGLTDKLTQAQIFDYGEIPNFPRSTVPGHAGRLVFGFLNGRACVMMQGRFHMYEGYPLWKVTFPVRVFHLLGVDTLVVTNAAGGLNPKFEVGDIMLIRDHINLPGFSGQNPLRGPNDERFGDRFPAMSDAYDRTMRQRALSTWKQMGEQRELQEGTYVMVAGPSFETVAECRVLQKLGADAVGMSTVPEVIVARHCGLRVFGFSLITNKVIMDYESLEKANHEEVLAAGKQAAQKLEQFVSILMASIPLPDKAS
Details: disclosed at the ACS meeting (2000)

Nc1nc2c([C@@H](CO)c3ccccc3F)c[nH]c2c(=O)[nH]1 [PNP-405]
IC50: 20 nM
